In ChEMBL document CHEMBL1130575, “ATP analogs with non-transferable groups in the position as inhibitors of glycerol kinase” (Bioorg Med Chem Lett, 1997):

Experiments:
Glycerol kinase = target: T1, Glycerol kinase (Homo sapiens, UniProt P32189); test: Tested for its binding affinity against glycerol kinase (ATP competitive inhibition)
T1 sequence (P32189 whole entry): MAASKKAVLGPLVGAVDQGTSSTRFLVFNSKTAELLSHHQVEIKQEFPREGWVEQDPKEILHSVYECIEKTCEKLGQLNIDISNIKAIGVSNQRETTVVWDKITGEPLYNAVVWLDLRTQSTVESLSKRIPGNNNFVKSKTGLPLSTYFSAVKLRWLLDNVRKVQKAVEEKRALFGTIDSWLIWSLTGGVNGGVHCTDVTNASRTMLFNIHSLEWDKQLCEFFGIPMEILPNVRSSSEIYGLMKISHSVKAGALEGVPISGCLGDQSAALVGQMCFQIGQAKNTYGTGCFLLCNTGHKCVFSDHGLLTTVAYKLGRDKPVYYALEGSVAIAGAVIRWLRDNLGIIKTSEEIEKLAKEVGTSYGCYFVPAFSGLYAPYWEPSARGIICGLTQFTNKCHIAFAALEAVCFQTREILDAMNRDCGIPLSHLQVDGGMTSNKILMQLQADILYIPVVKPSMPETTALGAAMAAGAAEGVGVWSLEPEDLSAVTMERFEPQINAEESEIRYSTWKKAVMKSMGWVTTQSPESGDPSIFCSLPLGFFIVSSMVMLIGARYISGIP

[1] = pKa value was evaluated; type: physicochemical

Row | Compound | Ki (Glycerol kinase) | pKa [1]
1 | Nc1ncnc2c1ncn2[C@@H]1O[C@H](COP(=O)(O)OP(=O)(O)C(F)(F)P(=O)(O)O)[C@@H](O)[C@H]1O | 80 µM | 6.7
2 | Nc1ncnc2c1ncn2[C@@H]1O[C@H](COP(=O)(O)OP(=O)(O)NP(=O)(O)O)[C@@H](O)[C@H]1O | 900 µM | –
3 | Nc1ncnc2c1ncn2C1O[C@H](COP(=O)(O)OP(=O)(O)C[As](=O)(O)O)[C@@H](O)[C@H]1O (some centres undefined) | 2900 µM | 9
4 | Nc1ncnc2c1ncn2[C@@H]1O[C@H](COP(=O)(O)OP(=O)(O)OP(=O)(O)O)[C@@H](O)[C@H]1O [ADENOSINE TRIPHOSPHATE] | 200 µM | 7.1
5 | Nc1ncnc2c1ncn2[C@@H]1O[C@H](COP(=O)(O)OP(=O)(O)CP(=O)(O)O)[C@@H](O)[C@H]1O [PHOSPHOMETHYLPHOSPHONIC ACID ADENYLATE ESTER] | 300 µM | 8.4
